# Data: patent US6358967B1, “Ergoline amine derivatives with blood pressure lowering effect” (priority 1998, dated 2002)
# Experiments:
# [1] = tested on: normotensive Wistar rats; experiment: Invasive blood pressure measurement in anesthetized rats, i.v. administration; format: in vivo, rat; conditions: 0.5 mg/kg i.v., Table 1.1; for Effect pressure/duration: duration: assessment class of duration; for Effect pressure/duration: pressure: assessment class of pressure fall; for Heart rate: change shown as arrow; for Heart rate / Duration: Wistar rats; for Duration: duration of blood pressure effect; for Diastol. pressure / Mean pressure / Systol. pressure: effect (fall) on arterial blood pressure, anesthetized Wistar rats
# Method: Male Wistar rats with a body weight (BW) of 300-450 g were used as experimental animals. The rats are anesthetized immediately before the experiment with 50 mg/kg pentobarbital Na intraperitoneally (i.p.) or 70 mg/kg inactin i.v. PE tubes are tied into the carotid artery and femoral vein.
# (§1) To maintain the blood pressure and to prevent formation of thrombi in the PE tubes of the blood vessels, each hour 2.5 ml of heparinized 0.9% strength NaCl solution are infused through the femoral vein and 1.2 ml through the carotid artery.
# The arterial blood pressure is measured invasively using a PONEMAH hemodynamic analyzer (HSE, March, Germany). Via the tube in the carotid artery, the arterial blood pressure is mechanoelectrically converted in a Statham transducer (ISOTEC), amplified in a Plugsys (DBA module, type 660), digitized in an A/D converter and input into the PC memory over defined time intervals. The values in the memory are then treated with an adapted algorithm in order to establish the blood pressure parameters to be calculated for heart rate, systolic, diastolic and mean blood pressure.
# (§2) The ergoline derivatives are administered i.v. through the femoral vein as 5 percent EtOH/NaCl (0.9%) solution, 1 ml/kg in a dosage of 0.5 mg/kg test substance.
# [2] = tested on: normotensive Wistar rats after pretreatment with Ecolid; experiment: Blood pressure testing after blockade of autonomic nerve tracts with Ecolid; format: in vivo, rat; conditions: Table 2; for Effect pressure/duration: duration: assessment class of duration; for Effect pressure/duration: duration / Effect pressure/duration: pressure: after Ecolid; for Effect pressure/duration: duration / Effect pressure/duration: pressure / Heart rate / Duration: 0.5 mg/kg i.v.; for Effect pressure/duration: pressure: assessment class of pressure fall; for Heart rate: change shown as arrow; for Heart rate / Duration: rats pretreated with Ecolid; for Diastol. pressure / Mean pressure / Systol. pressure: effect (fall) on arterial blood pressure, Wistar rats pretreated with Ecolid 0.5 mg/kg i.v., test substance 0.5 mg/kg i.v.
# Excerpt: Ecolid is a ganglionic blocker which competitively blocks the postsynaptic cholinergic (nicotinergic) receptors in the autonomic ganglia. This interrupts neurotransmission in the ganglia in both the para-sympathetic and sympathetic regions of the autonomic nervous system. The consequence thereof is, inter alia, a fall in blood pressure. It is possible in this way to differentiate central and peripheral (i.e. direct points of action on the smooth muscles) effects.
# The experimental animals used were male Wistar rats with a BW of 300-450 g. The rats are anesthetized immediately before the experiment with 70 mg/kg inactin i.v. PE tubes are tied into the carotid artery and femoral vein.
# as §1
# Before testing the ergoline derivatives, the experimental animals were treated with Ecolid (dose: 0.5 mg/kg, i.v.).
# as §2
# The time stated in the table corresponds to the period between administration of Ecolid and injection of the test substances.
SMILES,Effect pressure/duration: duration [1],Effect pressure/duration: pressure [1],Heart rate [1],Duration [1] [min],Diastol. pressure [1] [%],Mean pressure [1] [%],Systol. pressure [1] [%],Effect pressure/duration: duration [2],Effect pressure/duration: pressure [2],Heart rate [2],Diastol. pressure [2] [%],Mean pressure [2] [%],Systol. pressure [2] [%],Duration [2] [min]
CN1CC(CNC(=O)C2CCC(C(=O)NCc3cccc(CN)c3)CC2)CC2c3cccc4[nH]cc(c34)CC21.O=C(O)C(F)(F)F.O=C(O)C(F)(F)F (mixture of isomers) [Substance 9703131],↓↓↓/↓↓↓ (>30 min),↓↓↓/↓↓↓ (>30%),→,>240,55.2,51.6,47.5,↓↓↓/↓↓↓ (> 30 min),↓↓↓/↓↓↓ (> 30%),→,40.4,32.4,32.9,>60
CN1CC(CNC(=O)c2ccc(C(=O)NCc3cccc(CN)c3)cc2)CC2c3cccc4[nH]cc(c34)CC21.O=C(O)C(F)(F)F.O=C(O)C(F)(F)F (stereo not shown) [Substance 9703126],↓↓↓/↓↓↓ (>30 min),↓↓↓/↓↓↓ (>30%),→,>60,63.0,60.0,55.0,↓↓↓/↓↓↓ (> 30 min),↓↓↓/↓↓↓ (> 30%),→,48.7,43.7,36.4,>120
